Experimental findings from US12509437B2, “Substituted thiophene carboxamides and derivatives thereof as microbicides” (Bayer Aktiengesellschaft, priority 2019, dated 2025) are described below.

Where two headings read alike, the source gives them in different places.

The subject of data set [1] is Colletotrichum lindemuthianum. The data set can be described thus: In vivo preventive test on Colletotrichum lindemuthianum (Anthracnose on bean). To be noted: sprayed 72 hours before inoculation, evaluated 6 days after inoculation; for pest or weed control at 31 ppm / pest or weed control at 125 ppm / pest or weed control at 500 ppm: Colletotrichum lindemuthianum, 144 h, read-out: efficacy; for pest or weed control at 31 ppm: 31 ppm of active ingredient; for pest or weed control at 125 ppm: 125 ppm of active ingredient. As to the method: (§1) The tested active ingredients were prepared by homogenization in a mixture of acetone/Dimethyl sulfoxide/Tween®, and then diluted with water to obtain the desired active material concentration.
(§2) The young plants of bean were treated by spraying the active ingredient prepared as described above. Control plants were treated only with an aqueous solution of acetone/Dimethyl sulfoxide/Tween®.
After 72 hours, the plants were contaminated by spraying the leaves with an aqueous suspension of Colletotrichum lindemuthianum spores. The contaminated bean plants were incubated for 24 hours at 20° C. and at 100% relative humidity and then for 5 days at 20° C. and at 90% relative humidity.
The test was evaluated 6 days after the inoculation. 0% means an efficacy which corresponds to that of the control plants while an efficacy of 100% means that no disease was observed.

The subject of another data set is Peronospora parasitica. The data set can be described thus: In vivo preventive test on Peronospora parasitica (Crucifer downy mildew) on cabbage. To be noted: Hyaloperonospora parasitica, 120 h, sprayed 72 hours before inoculation, evaluated 5 days after inoculation, read-out: efficacy; for pest or weed control at 125 ppm: 125 ppm of active ingredient; for pest or weed control at 500 ppm: 500 ppm of active ingredient; for pest or weed control at 31 ppm: 31 ppm of active ingredient. The procedure: as §1
(§3) The young plants of cabbage were treated by spraying the active ingredient prepared as described above. Control plants were treated only with an aqueous solution of acetone/Dimethyl sulfoxide/Tween®.
After 72 hours, the plants were contaminated by spraying the leaves with an aqueous suspension of Peronospora parasitica spores. The contaminated cabbage plants were incubated for 5 days at 20° C. and at 100% relative humidity.
The test was evaluated 5 days after the inoculation. 0% means an efficacy which corresponds to that of the control plants while an efficacy of 100% means that no disease was observed.

Data set [2] deals with Xanthomonas campestris pv. campestris. The data set can be described thus: In vivo preventive test on Xanthomonas campestris pv. campestris (black rot on cabbage). Particulars: Xanthomonas campestris, sprayed 72 hours before inoculation, evaluated 8 or 10 days after inoculation, read-out: efficacy. As to the method: as §1, §3
After 72 hours, the plants were contaminated by spraying the leaves with an aqueous bacteria suspension of Xanthomonas campestris pv. campestris. The contaminated cabbage plants were incubated for 8 or 10 days at 27° C. at 95% relative humidity.
The test was evaluated 8 or 10 days after the inoculation. 0% means an efficacy which corresponds to that of the control plants while an efficacy of 100% means that no disease was observed.

In a further data set the test system is Uromyces appendiculatus. The data set can be described thus: In vivo preventive test on Uromyces appendiculatus (bean rust). To be noted: 240 h, sprayed 72 hours before inoculation, evaluated 10 days after inoculation, read-out: efficacy; for pest or weed control at 31 ppm: 31 ppm of active ingredient; for pest or weed control at 500 ppm: 500 ppm of active ingredient; for pest or weed control at 125 ppm: 125 ppm of active ingredient. As to the method: as §1, §2
After 72 hours, the plants were contaminated by spraying the leaves with an aqueous suspension of Uromyces appendiculatus spores. The contaminated bean plants were incubated for 24 hours at 20° C. and at 100% relative humidity and then for 9 days at 20° C. and at 70-80% relative humidity.
The test was evaluated 10 days after the inoculation. 0% means an efficacy which corresponds to that of the control plants while an efficacy of 100% means that no disease was observed.

Data set [3] deals with Xanthomonas campestris pv. campestris. The data set can be described thus: Xanthomonas campestris pv. campestris in vitro cell test. Type of data set: cell-based. Particulars: 24 h of incubation, read-out: efficacy (inhibition of bacteria growth; no direct activity); for inhibition at 5 ppm: 5 ppm of active ingredient; for inhibition at 20 ppm: 20 ppm of active ingredient. As to the method: (§4) • Solvent: DMSO • Culture medium: LB broth medium (Luria Broth Miller) Sigma • Inoculum: bacteria suspension Compounds were solubilized in DMSO and the solution used to prepare the required range of concentrations. The final concentration of DMSO used in the assay was ≤1%. Inoculum was prepared from a pre-culture of bacteria grown in liquid medium and diluted to the desired optical density (OD). Compounds were evaluated for their ability to inhibit bacteria growth in liquid culture assay. The compounds were added in the desired concentrations to culture medium containing the bacteria suspension. After 24 h of incubation, the efficacy of compounds was determined by spectrometric measurement of bacteria growth. Inhibition was determined by comparing the absorbance values in wells containing the compounds with the absorbance in control wells without active ingredients.

In data set [4] the test system is Pseudomonas syringae pv. tomato. The experiment in a line: Pseudomonas syringae pv. tomato in vitro cell test. To be noted: 20 ppm of active ingredient, 24 h of incubation, read-out: efficacy (inhibition of bacteria growth; no direct activity). Type of data set: cell-based. As to the method: as §4
In another data set the test system is Alternaria alternata. The experiment in a line: Alternaria alternata in vitro cell test. Type of data set: cell-based. Particulars: 120 h, 5 days incubation, read-out: efficacy (inhibition of fungal growth; no direct activity); for inhibition at 5 ppm: 5 ppm of active ingredient; for inhibition at 20 ppm: 20 ppm of active ingredient. As to the method:
(§5) • Solvent: DMSO • Culture medium: 14.6 g anhydrous D-glucose (VWR), 7.1 g Mycological Peptone (Oxoid), 1.4 g granulated Yeast Extract (Merck), QSP 1 liter • Inoculum: spores suspension Fungicides were solubilized in DMSO and the solution used to prepare the required range of concentrations. The final concentration of DMSO used in the assay was ≤[…]1%. A spore suspension of A. alternata was prepared and diluted to the desired spore density. Fungicides were evaluated for their ability to inhibit spore germination and mycelium growth in liquid culture assay. The compounds were added in the desired concentration to the culture medium with spores. After 5 days incubation, fungi-toxicity of compounds was determined by spectrometric measurement of mycelium growth. Inhibition of fungal growth was determined by comparing the absorbance values in wells containing the fungicides with the absorbance in control wells without fungicides.

Data set [5] has as its system Colletotrichum lindemuthianum. The data set can be described thus: Colletotrichum lindemuthianum in vitro cell test. Type of data set: cell-based. To be noted: 144 h, 6 days incubation, read-out: efficacy (inhibition of fungal growth; no direct activity); for inhibition at 5 ppm: 5 ppm of active ingredient; for inhibition at 20 ppm: 20 ppm of active ingredient. As to the method:
as §5, with “of C. lindemuthianum” for “of A. alternata”, “inhibit spores” for “inhibit spore”, “After 6” for “After 5”

Data set [6] in a line: LogP by HPLC on reversed phase columns (EEC directive 79/831 Annex V.A8). Type of data set: physicochemical. To be noted: reversed phase HPLC columns. The procedure: [table] If more than one Log P value is available within the same method, all the values are given and separated by “+”. Calibration was done with straight-chain alkan2-ones (with 3 to 16 carbon atoms) with known Log P values (measurement of Log P values using retention times with linear interpolation between successive alkanones). Lambda-max-values were determined using UV-spectra from 200 nm to 400 nm and the peak values of the chromatographic signals.

Data set [7] deals with salicylate responsive promoter sequence of the PR1 (pathogenesis-related protein I) gene (AT2G14610). The data set can be described thus: Induction of defense gene expression in Arabidopsis thaliana (PR1 promoter-GFP reporter plants). Type of data set: in vivo. Particulars: 72 h, 3rd day after spraying, mock treated leaves set as 1.00, read-out: relative fluorescence value. The procedure:
Arabidopsis thaliana reporter plants containing the coding sequence of a green fluorescent protein (GFP) linked to the salicylate responsive promoter sequence of the PR1 (pathogenesis-related protein I) gene (AT2G14610) were grown for five days and then sprayed with compounds. On the 3rd day after spraying, plant fluorescence was assessed with a MacroFluo instrument from Leica Microsystems (Wetzlar, Germany). Fluorescences were quantified with the Meta-Morph Microscopy Automation & Image Analysis Software (Molecular Devices, Sunnyvale, Calif., United States). Background fluorescence in mock treated leaves was set as 1.00.

The mark [8] stands for this setting: preparation examples, method not indicated, read-out: Log P.

The term inhibition denotes the drop in the measured response relative to a control, in per cent.

As to `COC(=O)C1(NC(=O)c2cc(Cl)c(Cl)s2)CC1` [CMP4, reference compound], the pest or weed control at 31 ppm in data set [1] was 0%; in [2] (31 ppm of active ingredient) it was 0%; in the data set on Uromyces appendiculatus it was < 40%. Moreover, the pest or weed control at 125 ppm was < 40% in [1] and 0% with Peronospora parasitica. The pest or weed control at 500 ppm (in the data set with Peronospora parasitica; in data set [2] (500 ppm of active ingredient)) was 0% each time.
On to `COC(=O)C1(NC(=O)c2cc(Br)c(Br)s2)CC1` [CMP5, reference compound], for which the pest or weed control at 125 ppm in [1] was 0%; with Peronospora parasitica, < 40%. Also, in the data set on Uromyces appendiculatus, the pest or weed control at 31 ppm was determined as 0%. The pest or weed control at 500 ppm in the data set with Uromyces appendiculatus was < 20%.
With `CCOC(=O)C1(NC(=O)c2cc(Cl)c(Cl)s2)CC1` [CMP6, reference compound], the pest or weed control at 31 ppm in data set [1] was < 40%. In addition, in the data set with Peronospora parasitica, the pest or weed control at 125 ppm is 0% and the pest or weed control at 500 ppm was 0%.
For the compound `CCOC(=O)CN(C)C(=O)c1sc(Br)c(Br)c1Br` [CMP15, reference compound], the pest or weed control at 500 ppm in data set [1] (500 ppm of active ingredient) is < 40%. Moreover, the pest or weed control at 125 ppm with Peronospora parasitica is < 30%.
On to `COC(=O)CC[C@H](NC(=O)c1sc(Br)c(Br)c1C)C(=O)OC` [CMP16, reference compound], for which, in data set [1] (500 ppm of active ingredient), the efficacy was 38%.
In the case of `COC(=O)C1(NC(=O)c2sc(Br)c(Br)c2C)CCC(F)(F)CC1` [I.005], the inhibition at 5 ppm (in data set [3]; in the data set with Alternaria alternata; in [5]) was ≤ 30% each time. Besides, the inhibition at 20 ppm (in data set [3]; in data set [4]; with Alternaria alternata) was ≤ 30% throughout. In [6] (method [a]), this compound had a chromatographic logP of 3.83. The pest or weed control at 500 ppm in the data set on Uromyces appendiculatus fell in the range of 90 to 100%.
`CCOC(=O)C1(NC(=O)CNC(=O)c2sc(Br)c(Br)c2C)CC1` [I.024, ethyl 1-({N-[(4,5-dibromo-3-methyl-2-thienyl)carbonyl]glycyl}amino)cyclopropanecarboxylate]: the inhibition at 5 ppm (in data set [3]; in the data set on Alternaria alternata; in data set [5]) was ≤ 30% in each case. Besides, the inhibition at 20 ppm (in data set [3]; in [4]; in the data set on Alternaria alternata; in data set [5]) was ≤ 30% throughout. Also, the fold induction at 75 ppm in data set [7] is > 2. In addition, in data set [6] (setting [8]), the chromatographic logP worked out at 2.55.
Consider `CCOC(=O)CN(C)C(=O)c1sc(Br)c(Br)c1C` [I.056], for which the pest or weed control at 125 ppm in the data set with Peronospora parasitica lay within 80 to 89%. In addition, in the data set with Peronospora parasitica, the pest or weed control at 500 ppm fell in the range of 90 to 100%. Also, the inhibition at 5 ppm (in data set [3]; in the data set with Alternaria alternata; in [5]) was ≤ 30% each time. The inhibition at 20 ppm (in data set [3]; in data set [4]; in the data set on Alternaria alternata) was ≤ 30% throughout. Also, in [6] (method [a]), the chromatographic logP was 3.23.
Consider `CONC(=O)[C@@H](NC(=O)c1sc(Br)c(Br)c1C)C(C)C` [I.074, N^2-[(4,5-dibromo-3-methyl-2-thienyl)carbonyl]-N-methoxyvalinamide], for which the inhibition at 5 ppm (in [3]; in the data set on Alternaria alternata; in [5]) was ≤ 30% each time. Moreover, the inhibition at 20 ppm (in data set [3]; in data set [4]; in the data set with Alternaria alternata; in [5]) was ≤ 30% each time. In data set [7], the fold induction at 300 ppm was > 2. Besides, the chromatographic logP in [6] (setting [8]) was 2.77.
Turning to `COC(=O)C1(NC(=O)c2sc(Br)c(Br)c2C)CCC1` [I.131], in data set [1] (500 ppm of active ingredient), the pest or weed control at 500 ppm lay within 80 to 89%. For the same compound, in the data set on Peronospora parasitica, the pest or weed control at 31 ppm fell in the range of 80 to 89%, the pest or weed control at 125 ppm lay in the range of 90 to 100% and the pest or weed control at 500 ppm lay within 90 to 100%. In data set [7], the fold induction at 75 ppm was > 2 and the fold induction at 300 ppm is > 2. The compound further returned a chromatographic logP in data set [6] (method [a]) of 3.4. Moreover, in the data set on Uromyces appendiculatus, the pest or weed control at 125 ppm was 90 to 100% and the pest or weed control at 500 ppm was in the range of 90 to 100%.
On to `CCOC(=O)C1(NC(=O)c2sc(Br)c(Br)c2C)CCC1` [I.132], for which, in data set [1] (500 ppm of active ingredient), the pest or weed control at 500 ppm lay within 70 to 79%. Also, in the data set with Peronospora parasitica, the pest or weed control at 31 ppm was 80 to 89%, the pest or weed control at 125 ppm is 80 to 89% and the pest or weed control at 500 ppm was in the range of 90 to 100%. In addition, in [7], the fold induction at 75 ppm was > 2 and the fold induction at 300 ppm is > 2. The chromatographic logP in data set [6] (method [a]) was determined as 3.81. Besides, in the data set with Uromyces appendiculatus, the pest or weed control at 31 ppm fell in the range of 90 to 100%, the pest or weed control at 125 ppm was in the range of 90 to 100% and the pest or weed control at 500 ppm fell in the range of 90 to 100%.
